Source: patent US5637731A (priority 1996, dated 1997)
Structures can show the parent of a compound that is named as a salt. Where two headings read alike, the source gives them in different places.

Experiments:
[1] = biological target: muscarinic cholinergic receptor; test: [^3 H]-Cis-methyldioxolane (^3 H-CD) Binding Assay (High Affinity); conditions: rat cerebral cortex, ^3 H-CD 1.0 nM, 25° C., 120 minutes, pH 7.4; high affinity agonist binding
[2] = biological target: muscarinic cholinergic receptor; type: binding, rat; conditions: pH 7.4
[3] = rat cerebral cortex, ^3 H-QNB 0.25 nM, 25° C., 120 minutes

Row | Structure (SMILES) | Ki [1] [µM] | Ki [2, 3] [µM] | Ki ([2]; read-out: ^3 H-QNB Ki) [µM]
1 | CC(C)(C)[Si](C)(C)O[C@H]1CCN(CC#CCN2CCC2)C1=O [(S)-1-[4-(1-Azetidinyl)-2-butynyl]-3-[[(1,1-dimethylethyl)-dimethylsilyl]oxy]-2-pyrrolidinone] | 5.6 | 5.8 | 
2 | CS[C@H]1CCN(CC#CCN(C)C)C1=O [(S)-1-[4-(Dimethylamino)-2-butynyl]-3-(methylthio)-2-pyrrolidinone] | 6.4 | > 100 | 
3 | CN(C)CC#CCN1CC[C@H](O[Si](C)(C)C(C)(C)C)C1=O [(S)-1-[4-(Dimethylamino)-2-butynyl]-3-[[(1,1-dimethylethyl)-dimethylsilyl]oxy]-2-pyrrolidinone] | 18.2 | 14.3 | 
4 | CN(C)CC#CCN1CC[C@H](O)C1=O [(S)-1-[4-(Dimethylamino)-2-butynyl]-3-hydroxy-2-pyrrolidinone] | 0.043 | 26.9 | 
5 | C[C@H]1CCN(CC#CCN(C)C)C1=O [(S)-1-[4-(Dimethylamino)-2-butynyl]-3-methyl-2-pyrrolidinone] | 0.68 | 35.5 | 
6 | CCN(CC)CC#CCN1CC[C@H](O[Si](C)(C)C(C)(C)C)C1=O [(S)-1-[4-(diethylamino)-2-butynyl]-3-[[(1,1-dimethylethyl)dimethylsily]oxy]-2-pyrrolidinone] | 15.4 | 7.6 | 
7 | CN(C)CC#CCN1CC[C@H](OC(=O)C(C)(C)C)C1=O [(S)-2,2-Dimethylpropanoic acid 1-[4-(dimethylamino)-2-butynyl]-2-oxo-3-pyrrolidinyl ester] | 38.8 | 484 | 
8 | CC(C)(C)C(=O)O[C@H]1CCN(CC#CCN2CCCC2)C1=O [(S)-2,2-Dimethylpropanoic acid 2-oxo-1-[4-(1-pyrrolidinyl)-2-butynyl]-3-pyrrolidinyl ester] | 0.37 | 4.6 | 
9 | CC(C)C(=O)O[C@H]1CCN(CC#CCN2CCCC2)C1=O [(S)-2-Methylpropanoic acid 2-oxo-1-[4-(1-pyrrolidinyl)-2-butynyl]-3-pyrrolidinyl ester] | 0.162 | 7.2 | 
10 | CC(=O)O[C@H]1CCN(CC#CCN(C)CCO)C1=O [(S)-3-(Acetyloxy)-1-[4-[2-(hydroxyethyl)methylamino]-2-butynyl]-2-pyrrolidinone] | 16.2 | > 100 | 
11 | CC(=O)O[C@H]1CCN(CC#CCN(C)CCCCO)C1=O [(S)-3-(Acetyloxy)-1-[4-[(4-hydroxybutyl)methylamino]-2-butynyl]-2-pyrrolidinone] | 8.21 | > 100 | 
12 | CS[C@H]1CCN(CC#CCN2CCCC2)C1=O [(S)-3-(Methylthio)-1-[4-(1-pyrrolidinyl)-2-butynyl]-2-pyrrolidinone] | 1.04 | 53 | 
13 | N[C@H]1CCN(CC#CCN2CCCC2)C1=O [(S)-3-Amino-1-[4-(1-pyrrolidinyl)-2-butynyl]-2-pyrrolidinone dihydrochloride] | 0.41 | 73.6 | 
14 | CN(C)CC#CCN1CC[C@H](N)C1=O [(S)-3-Amino-1-[4-(dimethylamino)-2-butynyl]-2-pyrrolidinone dihydrochloride] | 2.6 | > 100 | 
15 | [N-]=[N+]=N[C@H]1CCN(CC#CCN2CCCC2)C1=O [(S)-3-Azido-1-[4-(1-pyrrolidinyl)-2-butynyl]-2-pyrrolidinone] | 0.16 | 3.14 | 
16 | CN(C)CC#CCN1CC[C@H](N=[N+]=[N-])C1=O [(S)-3-Azido-1-[4-(dimethylamino)-2-butynyl]-2-pyrrolidinone] | 0.63 | > 100 | 
17 | O=C1[C@@H](O)CCN1CC#CCn1ccnc1 [(S)-3-Hydroxy-1-[4(1H-imidazol-1-yl)-2-butynyl]-2-pyrrolidinone] | 0.12 | > 100 | 
18 | O=C1[C@@H](O)CCN1CC#CCN1CCCC1 [(S)-3-Hydroxy-1-[4-(1-pyrrolidinyl)-2-butynyl]-2-pyrrolidinone] | 0.007 | 1.7 | 
19 | CN(CC#CCN1CC[C@H](O)C1=O)CCO [(S)-3-Hydroxy-1-[4-[(2-hydroxyethyl)methylamino]-2-butynyl]-2-pyrrolidinone] | 1.82 | > 100 | 
20 | CN(CC#CCN1CC[C@H](O)C1=O)CCCCO [(S)-3-Hydroxy-1-[4-[(4-hydroxybutyl)methylamino]-2-butynyl]-2-pyrrolidinone] | 1.3 | > 100 | 
21 | CC(C)(C)[Si](C)(C)O[C@H]1CCN(CC#CCN2CCCC2)C1=O [(S)-3-[[(1,1-Dimethylethyl)-dimethylsily]0xy]-1-[4-(1-pyrrolidinyl)-2-butynyl]-2-pyrrolidinone] | 3 | 2.7 | 
22 | CC(C)(C)[Si](C)(C)O[C@H]1CCN(CC#CCn2ccnc2)C1=O [(S)-3-[[(1,1-Dimethylethyl)dimethylsilyl]oxy]-1-[4-(1H-imidazol-1-yl)-2-butynyl]-2-pyrrolidinone] | 24.3 | > 100 | 

Row | Structure (SMILES) | Ki [1] [µM] | Ki [2, 3] [µM] | Ki ([2]; read-out: ^3 H-QNB Ki) [µM]
23 | CNC(=O)O[C@H]1CCN(CC#CCN2CCCC2)C1=O [(S)-3-[[Methylamino)carbonyl]oxy]-1-[4-(1-pyrrolidinyl)-2-butynyl]-2-pyrrolidinone] | > 100 | 433 | 
24 | C[N+](C)(C)CC#CCN1CC[C@H](N=[N+]=[N-])C1=O [(S)-4-(3-Azido-2-oxo-1-pyrrolidinyl)-N,N,N-trimethyl-2-butyn-1-aminium iodide] | 0.045 | 1.6 | 
25 | CC(C)(C)C(=O)O[C@H]1CCN(CC#CC[N+](C)(C)C)C1=O [(S)-4-[3-(2,2-Dimethyl-1-oxopropoxy)-2-oxo-1-pyrrolidinyl]-N,N, N-trimethyl-2-butyn-1-aminium iodide] | 7.8 | 478 | 
26 | COC(=O)O[C@H]1CCN(CC#CCN(C)C)C1=O [(S)-Carbonic acid 1-[4-(dimethylamino)-2-butynyl]-2-oxo-3-pyrrolidinyl methyl ester] | 2.16 | 15.1 | 
27 | CCCCCCCCOC(=O)O[C@H]1CCN(CC#CCN(C)C)C1=O [(S)-Carbonic acid 1-[4-(dimethylamino)-2-butynyl]-2-oxo-3-pyrrolidinyl octyl ester] | 0.306 | 10 | 
28 | CCCCCCOC(=O)O[C@H]1CCN(CC#CCN2CCCC2)C1=O [(S)-Carbonic acid hexyl 2-oxo-1-[4-(1-pyrrolidinyl)-2-butynyl]-3-pyrrolidinyl ester] | 0.015 | 1.7 | 
29 | COC(=O)O[C@H]1CC(=O)N(CC#CCN2CCCC2)C1 [(S)-Carbonic acid methyl 2-oxo-1-[4-(1-pyrrolidinyl)-2-butynyl]-4-pyrrolidinyl ester] | 0.85 | 1.8 | 
30 | CCCCCCCCCC(=O)O[C@H]1CCN(CC#CCN(C)C)C1=O [(S)-Decanoic acid 1-[4-(dimethylamino)2-butynyl]-2-oxo-3-pyrrolidinyl ester] | 0.023 | 0.6 | 
31 | CCCCCCCCCC(=O)O[C@H]1CC(=O)N(CC#CCN2CCCC2)C1 [(S)-Decanoic acid 2-oxo-1-[4-(1-pyrrolidinyl)-2-butynyl]-4-pyrrolidinyl ester] | 0.33 | 0.035 | 
32 | CN(C)C(=O)O[C@H]1CCN(CC#CCN2CCCC2)C1=O [(S)-Dimethylcarbamic acid 2-oxo-1-[4-(1-pyrrolidinyl)-2-butynyl]-3-pyrrolidinyl ester] | 9.56 |  | 40.3
33 | CCCCCCCCCC(=O)O[C@H]1CCN(CC#CC[N+](C)(C)C)C1=O [(S)-N,N, N-Trimethyl-4-[2-oxo-3-[(1-oxodecyl)oxy]-1-pyrrolidinyl-2-butyn-1-aminium iodide] | 0.156 | 0.003 | 
34 | CC(C)C(=O)O[C@H]1CCN(CC#CC[N+](C)(C)C)C1=O [(S)-N,N, N-Trimethyl-4-[3-(2-methyl-1-oxopropoxy)-2-oxo-1-pyrrolidinyl]-2-butyn-1-aminium iodide] | 6.96 | 64.3 | 
35 | CS[C@H]1CCN(CC#CC[N+](C)(C)C)C1=O [(S)-N,N, N-Trimethyl-4-[3-(methylthio)-2-oxo1-pyrrolidinyl]-2-butyn-1-aminium iodide] | 0.31 | 1.8 | 
36 | CCCCCCCCOC(=O)O[C@H]1CCN(CC#CC[N+](C)(C)C)C1=O [(S)-N,N, N-Trimethyl-4-[3-[[(octyloxy)carbonyl]oxy]-2-oxo-1-pyrrolidinyl]-2-butyn-1-aminium iodide] | 0.013 | 0.1 | 
37 | CC(C)(C)[Si](C)(C)OC[C@@H]1CCCN1CC#CCNC(=O)C(F)(F)F [(S)-N-[4-[2-[[[(1,1-Dimethylethyl]-dimethylsilyl]oxy]-methyl]-1-pyrrolidinyl]-2-butynyl]-2,2,2-trifluoroacetamide] | 41.4 | > 100 | 
38 | CCCCCCCCNC(=O)O[C@H]1CC(=O)N(CC#CCN2CCCC2)C1 [(S)-Octylcarbamic acid 2-oxo-1-[4-(1-pyrrolidinyl)-2-butynyl]-4-pyrrolidinyl ester] | 0.35 | 0.13 | 
39 | CCN(CC)CC#CCN [N,N-Diethyl-2-butyne-1,4-diamine dihydrochloride] | > 100 | > 100 | 
40 | CN(C)CC#CCN [N,N-Dimethyl-2-butyne-1,4-diamine dihydrochloride] | 20.5 | > 100 | 
41 | CCN(CC)CC#CCNC(=O)C(F)(F)F [N-[4-(Diethylamino)-2-butynyl]-2,2,2-trifluoroacetamide monohydrochloride] | 4.07 | > 100 | 
42 | CN(C)CC#CCNC(=O)C(F)(F)F [N-[4-Dimethylamino)-2-butynyl]-2,2,2-trifluoroacetamide monomhydrochloride] | 6.1 | > 100 | 
43 | CC1CCN(CC#CCN2CCC(O[Si](C)(C)C(C)(C)C)C2)C1=O (stereo not drawn) [[R-(R*,R* and R*,S*)]-1-[4-[3[[(1,1-dimethylethyl)-dimethylsilyl]oxy]-1-pyrrolidinyl-2-butynyl]-3-methyl-2-pyrrolidinone] | > 100 | > 100 | 
44 | CC(C)(C)[Si](C)(C)OC[C@H]1CCCN1CC#CCN1CC[C@@H](O)C1=O [[R-(R*,R*)]-1-[4-[2-[[[(1,1-Dimethylethyl)dimethylsilyl]-oxy]methyl]-1-pyrrolidinyl]-2-butynyl]-3-hydroxy-2-pyrrolidinone] | 4.2 | > 100 | 
